Data taken from article PMC6268294, “Synthesis of Chalcones with Anticancer Activities” (Molecules, 2012).
≈ marks a conversion by molar mass, not a printed value. Where two headings read alike, the source gives them in different places.

Experiments:
[1] = test system: human lung adenocarcinoma cell line A549; experiment: MTT cell viability assay, A549; assay type: cell-based; settings: 24 h treatment
Procedure: (§1) A549, PC3, MCF-7, HT-29, WRL68 and MCF-7 cells were obtained from the ATTC (Rockville, MD, USA) and grown in RPMI-1640 medium, 10% fetal bovine serum (FBS) and 1% pen-strep, in humidified conditions at 5% CO2 and 37 °C. The different cell lines mentioned above were used to determine the inhibitory effects of compounds on cell growth using the MTT assay. This colorimetric assay is based on the conversion of the yellow tetrazolium bromide (MTT) to a purple formazan derivative by mitochondrial succinate dehydrogenase in viable cells. Cells were seeded in 96-well plate and incubated for 24 h at 37 °C with 5% CO2 saturation. After incubation, the cells were treated with different concentration of compounds and incubated for another 24 h. After 24 h of drug treatment, 20 µL of MTT solution at 5 mg/mL was added and incubated for 4 h. Dimethyl sulfoxide (DMSO) in volume of 100 µL is added into each well to dissolve the purple formazan formed. The colorimetric assay is measured and recorded at absorbance of 570 nm.

[2] = test system: human prostate cancer cell line PC3; experiment: MTT cell viability assay, PC3; assay type: cell-based; settings: 24 h treatment
Procedure: as §1

[3] = test system: human breast adenocarcinoma cell line MCF-7; experiment: MTT cell viability assay, MCF-7; assay type: cell-based; settings: MCF7, 24 h treatment
Procedure: as §1

[4] = test system: human adenocarcinoma cell line HT-29 (colorectal cancer); experiment: MTT cell viability assay, HT-29; assay type: cell-based; settings: 24 h treatment
Procedure: as §1

[5] = test system: human normal liver cell line WRL-68; experiment: MTT cell viability assay, WRL68; assay type: cell-based; settings: 24 h treatment
Procedure: as §1

[6] = test system: MCF-7 (breast), A549 (lung), PC3 (prostate), HT-29 (colorectal) and WRL68 (liver); experiment: MTT assay, summary over all five cell lines; assay type: cell-based, human; settings: for IC50: Homo sapiens, all five cell lines, read-out: IC50 in all cell lines
Procedure: as §1

MCF-7 cells = experiment: Multiparametric high content screening (HCS) cytotoxicity/apoptosis assay; assay type: cell-based, human; settings: for cell (membrane) permeability / cytochrome c release / mitochondrial membrane potential / total nuclear intensity (Hoechst 33342 nuclear chromatin staining) / cell loss: MCF-7, compounds 2-6 µg/mL; for cell (membrane) permeability / cytochrome c release / mitochondrial membrane potential / total nuclear intensity (Hoechst 33342 nuclear chromatin staining): tamoxifen 0.04 µg/mL, vs control; for cell loss: data not shown; for apoptosis in MCF-7 cells: shown by multiparameter cytotoxicity assay and caspase-3/7, -8, -9 activities, p < 0.05
ROS in MCF-7 cells = experiment: Intracellular ROS level (DCFDA); assay type: cell-based, human; settings: MCF-7, 24 h, high concentration (6 µg/mL; 25: 4 µg/mL), vs untreated control, p < 0.05
Procedure: (§2) Due to the observation of significant cytotoxicity of selected compounds towards MCF-7 cells, the following analyses were done on them only. Cells were treated with compound 1 (1A- 3 µg/mL; 1B- 6 µg/mL), 23 (23A- 3 µg/mL; 23B- 6 µg/mL), 25 (25A- 2 µg/mL; 25B- 4 µg/mL) and 5 (5A- 3 µg/mL; 5B- 6 µg/mL).
The production of ROS was estimated by fluorescence using the redox-sensitive fluorescent probe DCFDA (Sigma). The oxidation of DCFDA by ROS converts the molecule to 2′,7′-dichlorodihydrofluorescein (DCF), which is highly fluorescent. Thus, ROS production by stimulated cells causes an increase in the fluorescence signal over time. ROS assays were performed as previously described (13). Briefly, the MCF-7 cells were seeded in 96-well plates (5 × 10^4 cells/well) and allowed to attach for 24 h. After 24 h treatment with compounds 1, 23, 25 and 5 as mentioned before, the cells were washed three times with PBS and incubated for 60 min with […] DCFDA at room temperature. Again the wells were washed with PBS. Fresh PBS was added (100 μL/well) and DCF fluorescence was detected using a Tecan Infinite M200 fluorescence microplate reader at excitation and emission wavelengths of 485 and 528 nm, respectively. The fluorescence intensity unit of treatments was compared with control.

caspase-8 in MCF-7 cells = experiment: Caspase-Glo-8 activity; assay type: cell-based, human; settings: MCF-7, 24 h, highest concentrations (6 µg/mL; 25: 4 µg/mL); control printed 50892 RLU; p < 0.05
Procedure: as §2
(§3) Activity of cellular caspases was measured using the Caspase-Glo-9, Caspase-Glo-3/7 and Caspase-Glo-8 assay reagents (Promega), according to the manufacturer's instructions. The assays provide a luminogenic caspase-3/caspase-7 or caspase-8 or caspase-9 substrate, respectively, in a buffer system optimized for caspase activity measurement in cell lysates. The luciferase signal generated is proportional to the amount of caspase activity present. MCF-7 cells have no caspase-3 activity due to functional deletion of the CASP-3 gene. Therefore, the activity measured in this test is that of caspase-7. Briefly, cells were plated in opaque 96-well plates in triplicate and treated with […]. After 24 h treatment with compounds 1, 23, 25 and 5 as mentioned before, the assay reagents were added to the plates at room temperature and incubated for 60 min, and the luminescence was measured using a plate reader. All assays were done in triplicate, and means ± SD were calculated for each condition.

[7] = test system: caspase-3/7 in MCF-7 cells; experiment: Caspase-Glo-3/7 activity; assay type: cell-based, human; settings: MCF-7, 24 h, highest concentration (6 µg/mL for 1); control 30,140 RLU
Procedure: as §2, §3

IC50 [1] [µg/mL] | IC50 [2] [µg/mL] | IC50 [3] [µg/mL] | IC50 [4] [µg/mL] | IC50 ([6]; MTT) [µg/mL] | melting point [°C] | SMILES | IC50 [5] [µg/mL] | cytotoxic effect in words [6] | cell (membrane) permeability (MCF-7 cells) | cytochrome c release (MCF-7 cells) | mitochondrial membrane potential (MCF-7 cells) | total nuclear intensity (Hoechst 33342 nuclear chromatin staining) (MCF-7 cells) | cell loss (MCF-7 cells) | apoptosis in MCF-7 cells (MCF-7 cells) | ROS increase at high concentration (ROS in MCF-7 cells) [fold] | caspase-8 activity at highest concentration (caspase-8 in MCF-7 cells) | cytotoxic effect in words ([6]; all cell lines, MTT) | caspase-3/7 activity at highest concentration [7] [RLU]
19.9 ± 1.66 (≈ 82.2 µM) | 13.8 ± 1.2 (≈ 57 µM) | 7.99 ± 0.81 (≈ 32.9 µM) | 13.2 ± 1.2 (≈ 54.6 µM) | < 20 | 53 to 54 | O=C(/C=C/c1ccccc1Cl)c1ccccc1 [Compound 5, 3-(2-Chlorophenyl)-1-phenylpropenone] | 11.5 ± 1.1 (≈ 47.2 µM) | high cytotoxicity | increased cell permeability | cytochrome c release from mitochondria | loss of mitochondrial membrane potential | increased total nuclear intensity | statistically significant cell loss | capable in eliciting apoptosis | 2.7 |  |  | 
16.8 ± 1.76 (≈ 70.5 µM) | 9.49 ± 0.7 (≈ 39.8 µM) | 6.87 ± 1.2 (≈ 28.8 µM) | 13 ± 0.54 (≈ 54.5 µM) | < 20 | 165 to 167 | Cc1ccc(C(=O)/C=C/c2ccccc2O)cc1 [Compound 23, 3-(2-Hydroxyphenyl)-1-p-tolylpropenone] | 9.53 ± 1.5 (≈ 40 µM) | high cytotoxicity | increased cell permeability | cytochrome c release from mitochondria | loss of mitochondrial membrane potential | increased total nuclear intensity | statistically significant cell loss | capable in eliciting apoptosis |  | 18,342 RLU |  | 
16.8 ± 1.08 (≈ 80.5 µM) | 9.11 ± 0.9 (≈ 43.7 µM) | 6.88 ± 0.219 (≈ 33 µM) | 10.1 ± 1.01 (≈ 48.5 µM) | < 20 |  | O=C(/C=C/c1ccccc1)c1ccccc1 [Compound 1, 1,3-Diphenylpropenone] | 10.6 ± 0.89 (≈ 50.7 µM) |  | increased cell permeability | cytochrome c release from mitochondria | loss of mitochondrial membrane potential | increased total nuclear intensity | statistically significant cell loss | capable in eliciting apoptosis |  |  | high cytotoxicity | 210430
